SMILES strings stand for the structures.

In series [1] the target is T1, rat VR1 (Rattus norvegicus, UniProt O35433).
T1 construct: expressed in transfected cells
The series can be described thus: 45Ca2+-uptake assay in CHO/VR1 cells, antagonism of capsaicin-stimulated uptake. Type of series: cell-based. The note with it: 45Ca2+ uptake stimulated by 50 nM capsaicin.

Series [2] concerns the target T1, rat VR1. The series can be described thus: [3H]resiniferatoxin (RTX) competition binding assay, VR1-transfected CHO cells. A digest of the protocol:
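Competition with [3H]RTX (50-100 pM) ran 60 min at 37° C using whole VR1-induced CHO cells in BSA-containing DPBS, nonspecific defined by 100 nM cold RTX. After centrifugation, pellet radioactivity counted by scintillation; Hill fits gave Ki and cooperativity.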

Series [3] has as its target T1, rat VR1. The note with it: rat VR1 expressed in CHO cells; cited from earlier work.
The mark [4] stands for this setting: competition with [3H]RTX, rat VR1 in CHO cells, read-out: Ki (nM) Binding Affinity.

T1 sequence (O35433 whole entry): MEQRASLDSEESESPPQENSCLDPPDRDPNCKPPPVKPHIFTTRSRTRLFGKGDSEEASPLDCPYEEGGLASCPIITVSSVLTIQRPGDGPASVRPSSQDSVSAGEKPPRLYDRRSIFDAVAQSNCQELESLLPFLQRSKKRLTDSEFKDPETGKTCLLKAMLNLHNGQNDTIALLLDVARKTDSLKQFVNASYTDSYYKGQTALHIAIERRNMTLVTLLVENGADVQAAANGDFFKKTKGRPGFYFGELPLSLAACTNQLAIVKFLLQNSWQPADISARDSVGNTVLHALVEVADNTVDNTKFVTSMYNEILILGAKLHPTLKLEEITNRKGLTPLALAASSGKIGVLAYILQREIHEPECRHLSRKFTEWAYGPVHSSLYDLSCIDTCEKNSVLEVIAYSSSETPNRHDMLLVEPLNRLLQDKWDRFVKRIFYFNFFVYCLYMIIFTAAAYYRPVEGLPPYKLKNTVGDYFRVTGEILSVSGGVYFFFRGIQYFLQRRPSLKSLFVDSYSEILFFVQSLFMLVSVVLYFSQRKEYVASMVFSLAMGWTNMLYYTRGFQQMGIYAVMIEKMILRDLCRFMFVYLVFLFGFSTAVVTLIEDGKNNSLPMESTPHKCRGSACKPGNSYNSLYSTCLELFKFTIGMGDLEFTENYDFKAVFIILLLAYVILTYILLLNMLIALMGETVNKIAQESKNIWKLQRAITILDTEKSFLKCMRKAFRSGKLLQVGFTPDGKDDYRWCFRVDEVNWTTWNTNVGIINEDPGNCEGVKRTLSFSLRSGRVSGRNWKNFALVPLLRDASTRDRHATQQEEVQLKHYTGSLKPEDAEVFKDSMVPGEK

Take `CC(C)(C)c1ccc(CNC(=S)NC2(c3ccc(NS(C)(=O)=O)cc3)CC2)cc1` [22-7, N-(4-t-Butylbenzyl)-N′-{1-[4-(methylsulfonylamino)phenyl]cyclopropyl}thiourea]: the melting point lay in the range of 110 to 113 °C. This compound also showed an inhibition constant (Ki) at rat VR1 [1] of 60.3 nM. Also, on rat VR1 [2] (setting [4]), the inhibition constant Ki stood at 171 nM.

The compound `COc1cc(C2(NC(=S)NCc3ccc(C(C)(C)C)cc3)CC2)ccc1NS(C)(=O)=O` [22-9, N-(4-t-Butylbenzyl)-N′-{1-[3-methoxy-4-(methylsulfonylamino)phenyl]cyclopropyl}thiourea] came in with a melting point of 100 to 103 °C. Also, the affinity at rat VR1 [1], expressed as Ki, was 243 nM. For the same compound, the inhibition constant Ki at rat VR1 [2] (setting [4]) is 372 nM.

`CC(NC(=O)NCc1ccc(C(C)(C)C)cc1)c1ccc(NS(C)(=O)=O)cc1` (stereo not shown) [23-1, N-(4-t-Butylbenzyl)-N′-{1-[4-(methylsulfonylamino)phenyl]ethyl}urea] showed a melting point of 95 to 98 °C. The Ki at rat VR1 [1] came to 544 nM. The compound also yielded a Ki on rat VR1 [2] of 1190 nM.

Consider `CC(NC(=O)NCc1ccc(C(C)(C)C)cc1)c1ccc(NS(C)(=O)=O)c(F)c1` (stereo not shown) [23-2, N-(4-t-Butylbenzyl)-N′-{1-[3-fluoro-4-(methylsulfonylamino)phenyl]ethyl}urea], for which the melting point lay in the range of 152 to 154 °C. This compound also had an inhibition constant (Ki) on rat VR1 [1] of 298 nM. The compound also gave a Ki on rat VR1 [2] of 447 nM.

On to `CC(NC(=O)Cc1ccc(C(C)(C)C)cc1)c1ccc(NS(C)(=O)=O)c(F)c1` (stereo not shown) [24-1, N-{1-[3-Fluoro-4-(methylsulfonylamino)phenyl]ethyl}-3-(4-tert-butylphenyl)acetamide], for which the melting point lay in the range of 134 to 136 °C. Also, on rat VR1 [1], the Ki came to 2220 nM. Besides, the Ki on rat VR1 [2] (setting [4]) turned out to be 2130 nM.

Compound `CC(NC(=O)CCc1ccc(C(C)(C)C)cc1)c1ccc(NS(C)(=O)=O)c(F)c1` (stereo not shown) [24-2, N-{1-[3-Fluoro-4-(methylsulfonylamino)phenyl]ethyl}-3-(4-tert-butylphenyl)propanamide] came in with a melting point of 152 to 154 °C. The same compound showed an inhibitory constant (Ki) on rat VR1 [1] of 103 nM. Moreover, the Ki at rat VR1 [2] (setting [4]) stood at 376 nM.

As for `Cc1ccc(C=CC(=O)NC(C)c2ccc(NS(C)(=O)=O)c(F)c2)cc1C` (stereo not shown) [24-5, N-{1-[3-Fluoro-4-(methylsulfonylamino)phenyl]ethyl}-3-(3,4-dimethylphenyl)-2-propenamide], the melting point lay within 212 to 213 °C. At rat VR1 [1], the Ki came to 1350 nM. In addition, the Ki at rat VR1 [2] amounted to 2520 nM.

On to `CC(NC(=O)C=Cc1ccc(Cl)cc1)c1ccc(NS(C)(=O)=O)c(F)c1` (stereo not shown) [24-7, N-{1-[3-Fluoro-4-(methylsulfonylamino)phenyl]ethyl}-3-(4-chlorophenyl)-2-propenamide], for which the melting point is 219 to 221 °C. The same compound came in with a Ki at rat VR1 [1] of 938 nM. The compound also yielded an inhibition constant Ki at rat VR1 [2] of 773 nM.

Take `Cc1ccc(C(C)CC(=O)NC(C)c2ccc(NS(C)(=O)=O)c(F)c2)cc1C` (stereo not shown) [24-8, N-{1-[3-Fluoro-4-(methylsulfonylamino)phenyl]ethyl}-3-(3,4-dimethylphenyl)butanamide]: the melting point was in the range of 152 to 154 °C. Further, the affinity at rat VR1 [1], expressed as Ki, was 988 nM. This compound gave a Ki at rat VR1 [2] of 3530 nM.

On to `Cc1ccc(CC(CNC(=S)NCc2ccc(NS(C)(=O)=O)cc2)COC(=O)C(C)(C)C)cc1C` (stereo not shown) [Compound 1, N-[2-(3,4-dimethylbenzyl)-3-pivaloyloxypropyl]-N′-[4-(methylsulfonylamino)benzyl]thiourea], for which the agonism/antagonism character result at rat VR1 [3] is “partial agonism”.

The values above are taken from patent US8642657B2 (Gruenenthal GmbH, priority 2003, dated 2014).
